Several values for one entry are separate records, joined by “and”; a condition that tells them apart may be missing. Identical values can stand only once. Toxic doses and inconclusive results are not listed. No stated cut-off is given here; in the data, active means T/C of 150% or more; inactive means T/C below 125%.
Tested on: L1210 leukemia ip in BDF1 mice, survival T/C
Test: NCI In Vivo Anticancer Drug Screen. Data for tumor model L1210 Leukemia (intraperitoneal) in B6D2F1 (BDF1) mice
Settings: endpoint: mean survival time, higher = longer survival
In short: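 Value reflects the ratio of survival in compound-treated mice to survival in vehicle-treated controls, with both groups carrying the same transplanted tumor.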

[1] = dose: 100.0 mg/kg/injection, schedule: Q01DX001 (ip), vehicle: saline with Tween-80
[2] = dose: 100.0 mg/kg/injection, schedule: Q01DX009 (ip), vehicle: saline
[3] = dose: 100.0 mg/kg/injection, schedule: Q04DX003 (ip), vehicle: saline
[4] = dose: 200.0 mg/kg/injection, schedule: Q01DX009 (ip), vehicle: saline
[5] = dose: 200.0 mg/kg/injection, schedule: Q04DX003 (ip), vehicle: saline
[6] = dose: 400.0 mg/kg/injection, schedule: Q04DX003 (ip), vehicle: saline
[7] = dose: 100.0 mg/kg/injection, schedule: Q01DX001 (ip), vehicle: saline
[8] = dose: 100.0 mg/kg/injection, schedule: Q04DX003 (ip), vehicle: Klucel (hydroxypropylcellulose) (HPC)
[9] = dose: 200.0 mg/kg/injection, schedule: Q01DX001 (ip), vehicle: saline
[10] = dose: 200.0 mg/kg/injection, schedule: Q04DX003 (ip), vehicle: Klucel (hydroxypropylcellulose) (HPC)
[11] = dose: 400.0 mg/kg/injection, schedule: Q01DX001 (ip), vehicle: saline
[12] = dose: 400.0 mg/kg/injection, schedule: Q04DX003 (ip), vehicle: Klucel (hydroxypropylcellulose) (HPC)
[13] = dose: 100.0 mg/kg/injection, schedule: Q04DX002 (ip), vehicle: Klucel (hydroxypropylcellulose) (HPC)
[14] = dose: 200.0 mg/kg/injection, schedule: Q04DX002 (ip), vehicle: Klucel (hydroxypropylcellulose) (HPC)
[15] = dose: 400.0 mg/kg/injection, schedule: Q04DX002 (ip), vehicle: Klucel (hydroxypropylcellulose) (HPC)
[16] = dose: 100.0 mg/kg/injection, schedule: Q01DX009 (ip), vehicle: Klucel (hydroxypropylcellulose) (HPC)
[17] = dose: 200.0 mg/kg/injection, schedule: Q01DX009 (ip), vehicle: Klucel (hydroxypropylcellulose) (HPC)
[18] = dose: 400.0 mg/kg/injection, schedule: Q01DX009 (ip), vehicle: Klucel (hydroxypropylcellulose) (HPC)
[19] = dose: 50.0 mg/kg/injection, schedule: Q01DX009 (ip), vehicle: saline with Tween-80
[20] = dose: 50.0 mg/kg/injection, schedule: Q01DX001 (ip), vehicle: carboxymethylcellulose (CMC)
[21] = dose: 200.0 mg/kg/injection, schedule: Q01DX001 (ip), vehicle: carboxymethylcellulose (CMC)
[22] = dose: 400.0 mg/kg/injection, schedule: Q01DX001 (ip), vehicle: carboxymethylcellulose (CMC)
[23] = dose: 100.0 mg/kg/injection, schedule: Q01DX001 (ip), vehicle: carboxymethylcellulose (CMC)

Measured: T/C

CC[C@@H]1C[C@H]2CC3c4[nH]c5ccc(OC)cc5c4CCN(C2)C31
inactive: dose: 25.0 mg/kg/injection, schedule: Q01DX001 (ip), vehicle: saline with Tween-80 96 % of control | dose: 50.0 mg/kg/injection, schedule: Q01DX001 (ip), vehicle: saline with Tween-80 96 % of control | [1] 93 % of control and 109 % of control

CC(C)(C)OC(=O)NO
inactive: [2] 103 % of control | dose: 100.0 mg/kg/injection, schedule: Q04DX002 (ip), vehicle: saline 110 % of control | [3] 104 % of control | [4] 100 % of control | dose: 200.0 mg/kg/injection, schedule: Q04DX002 (ip), vehicle: saline 98 % of control | [5] 104 % of control | dose: 400.0 mg/kg/injection, schedule: Q01DX009 (ip), vehicle: saline 108 % of control | dose: 400.0 mg/kg/injection, schedule: Q04DX002 (ip), vehicle: saline 110 % of control | [6] 106 % of control

ClCc1nc2ccccc2[nH]1
inactive: dose: 50.0 mg/kg/injection, schedule: Q01DX001 (ip), vehicle: saline 101 % of control | [7] 101 % of control | [8] 105 % of control | [9] 104 % of control | [10] 102 % of control | [11] 110 % of control | [12] 98 % of control

C1=C(c2ccccc2)N(C2CCCC2)C(c2ccccc2)=CN1Cc1ccccc1
inactive: [13] 100 % of control | [14] 95 % of control | [15] 97 % of control

CC(=O)N1CCC(CC(O)Cc2ccnc3ccccc23)CC1 (centres undefined)
inactive: [3] 97 % of control | [5] 97 % of control

OC(/N=C/c1ccccc1)C(Cl)(Cl)Cl (centres undefined)
inactive: [13] 103 % of control | [14] 88 % of control | [15] 114 % of control

CCN(CC)c1cc(Cl)c(C=O)cc1[N+](=O)[O-]
inactive: [16] 100 % of control | [8] 94 % of control | [17] 107 % of control | [10] 96 % of control | [18] 102 % of control | [12] 102 % of control

COc1ccc(OC)c(/C=C(/C)[N+](=O)[O-])c1
inactive: [19] 109 % of control | dose: 100.0 mg/kg/injection, schedule: Q01DX009 (ip), vehicle: saline with Tween-80 109 % of control | [8] 97 % of control | dose: 200.0 mg/kg/injection, schedule: Q01DX009 (ip), vehicle: saline with Tween-80 109 % of control | [10] 108 % of control

COC1/C=C/OC2(C)Oc3c(C)c(O)c4c(O)c(c(/C=N/N5C(C)CN(Cc6ccccc6)CC5C)c(O)c4c3C2=O)NC(=O)C(C)=C/C=C/C(C)C(O)C(C)C(O)C(C)C(OC(C)=O)C1C (centres undefined)
inactive: dose: 50.0 mg/kg/injection, schedule: Q01DX009 (ip), vehicle: Klucel (hydroxypropylcellulose) (HPC) 91 % of control | [16] 93 % of control

COCCc1cccc(C)n1
inactive: [2] 93 % of control | [3] 93 % of control | [4] 92 % of control | [5] 94 % of control | [6] 91 % of control

COC(=O)C(CSC(c1ccc(N(C)C)cc1)c1ccc(N(C)C)cc1)NC(=O)OCc1ccccc1 (centres undefined)
inactive: dose: 75.0 mg/kg/injection, schedule: Q01DX001 (ip), vehicle: carboxymethylcellulose (CMC) 97 % of control | dose: 300.0 mg/kg/injection, schedule: Q01DX001 (ip), vehicle: carboxymethylcellulose (CMC) 94 % of control

C=CCCCCCCC=C
inactive: [20] 93 % of control | [21] 88 % of control | [22] 93 % of control

COc1ccc2c3c1OC1C4(OC)CCC5(c6c(O)ccc(O)c64)C(C2)N(C)CCC315 (centres undefined)
inactive: [7] 86 % of control | [9] 96 % of control | [11] 94 % of control

O=C(NCCF)NC1C=CCCC1 (centres undefined)
inactive: dose: 75.0 mg/kg/injection, schedule: Q01DX001 (ip), vehicle: other 100 % of control | dose: 150.0 mg/kg/injection, schedule: Q01DX001 (ip), vehicle: other 95 % of control | dose: 300.0 mg/kg/injection, schedule: Q01DX001 (ip), vehicle: other 94 % of control

C=CC[n+]1c(C)ccc2ccccc21
inactive: dose: 25.0 mg/kg/injection, schedule: Q01DX009 (ip), vehicle: saline with Tween-80 100 % of control | [19] 115 % of control | [1] 114 % of control

CCCCC(=O)N/N=C\c1cccc([N+](=O)[O-])c1
inactive: [23] 92 % of control | [21] 92 % of control | [22] 95 % of control

COc1ccc2c(=O)c(C)c(-c3ccccc3)oc2c1CN(C)C
inactive: dose: 0.19 mg/kg/injection, schedule: Q01DX009 (ip), vehicle: saline 96 % of control | dose: 0.39 mg/kg/injection, schedule: Q01DX009 (ip), vehicle: saline 112 % of control | dose: 0.78 mg/kg/injection, schedule: Q01DX009 (ip), vehicle: saline 110 % of control | dose: 0.78 mg/kg/injection, schedule: Q04DX003 (ip), vehicle: saline 100 % of control | dose: 1.56 mg/kg/injection, schedule: Q01DX009 (ip), vehicle: saline 112 % of control | dose: 1.56 mg/kg/injection, schedule: Q04DX003 (ip), vehicle: saline 94 % of control | dose: 3.12 mg/kg/injection, schedule: Q01DX009 (ip), vehicle: saline 108 % of control | dose: 3.12 mg/kg/injection, schedule: Q04DX003 (ip), vehicle: saline 93 % of control | dose: 5.0 mg/kg/injection, schedule: Q01DX001 (ip), vehicle: saline 103 % of control

Cc1cccc(C)c1NC(=O)Nc1ccc(C(=O)O)cc1
inactive: [16] 101 % of control | [17] 108 % of control | [18] 103 % of control

CCN(CC)Cc1cc(Nc2c3ccccc3nc3cc(Cl)ccc23)ccc1O
inactive: dose: 12.5 mg/kg/injection, schedule: Q01DX009 (ip), vehicle: saline 101 % of control | dose: 25.0 mg/kg/injection, schedule: Q01DX009 (ip), vehicle: saline 98 % of control | dose: 30.0 mg/kg/injection, schedule: Q01DX Z (ip), vehicle: methylcellulose (MC) 113 % of control | dose: 30.0 mg/kg/injection, schedule: Q01DX Z (ip), vehicle: saline 101 % of control | dose: 45.0 mg/kg/injection, schedule: Q01DX Z (ip), vehicle: methylcellulose (MC) 100 % of control | dose: 45.0 mg/kg/injection, schedule: Q01DX Z (ip), vehicle: saline 109 % of control | [20] 102 % of control | dose: 50.0 mg/kg/injection, schedule: Q01DX009 (ip), vehicle: saline 103 % of control | dose: 67.0 mg/kg/injection, schedule: Q01DX Z (ip), vehicle: methylcellulose (MC) 101 % of control | dose: 67.0 mg/kg/injection, schedule: Q01DX Z (ip), vehicle: saline 107 % of control | [23] 102 % of control | dose: 100.0 mg/kg/injection, schedule: Q01DX Z (ip), vehicle: methylcellulose (MC) 103 % of control | [3] 91 % of control | [21] 105 % of control | [22] 102 % of control

— PubChem BioAssay AID248 (DTP/NCI, 2004)
